Assay results from the NIST ThermoML archive (doi:10.1021/acs.jced.7b00092).

Conditions: Liquid, Frequency=8 MHz, Pulse-echo method

C[Si](C)(C)O[Si](C)(C)O[Si](C)(C)O[Si](C)(C)C [decamethyltetrasiloxane]
Conditions	speed of sound [m/s]
217.81 K, 2 kPa	1232
217.81 K, 1324 kPa	1238.8
217.85 K, 9419 kPa	1278.4
217.9 K, 19699 kPa	1325.2
217.99 K, 40255 kPa	1409.2
218.01 K, 60115 kPa	1481.3
218.09 K, 79712 kPa	1545.9
218.16 K, 98572 kPa	1603
218.24 K, 118233 kPa	1658.4
249.42 K, 119047 kPa	1575.5
249.53 K, 98950 kPa	1515.2
249.65 K, 80370 kPa	1454.9
249.74 K, 59554 kPa	1380.8
249.8 K, 19343 kPa	1208.7
249.8 K, 39384 kPa	1300.3
249.84 K, 1077 kPa	1110.1
249.84 K, 9240 kPa	1156.2
299.9 K, 16 kPa	925.67
299.92 K, 1080 kPa	933.63
299.94 K, 121 kPa	926.31
299.96 K, 958 kPa	932.76
299.98 K, 9659 kPa	994.25
300 K, 19671 kPa	1056.3
300 K, 60024 kPa	1252.4
300 K, 80266 kPa	1331.2
300 K, 99198 kPa	1397.7
300.01 K, 40202 kPa	1164.3
300.04 K, 119626 kPa	1463.1
349.87 K, 59744 kPa	1145.5
349.89 K, 9447 kPa	851.51
349.89 K, 99170 kPa	1302.5
349.89 K, 119296 kPa	1370.8
349.9 K, 19447 kPa	925.37
349.92 K, 80462 kPa	1232.5
349.93 K, 1369 kPa	780.56
349.93 K, 40092 kPa	1049.2
399.55 K, 120290 kPa	1300.1
399.6 K, 1077 kPa	636.31
399.6 K, 9691 kPa	731.33
399.67 K, 1234 kPa	638.18
399.67 K, 20055 kPa	820.52
399.69 K, 38533 kPa	945.04
399.69 K, 60934 kPa	1064.3
399.7 K, 81120 kPa	1154.3
399.7 K, 99014 kPa	1224.6
449.89 K, 9702 kPa	623.33
449.92 K, 19667 kPa	723.35
449.96 K, 40506 kPa	876.94
449.99 K, 59941 kPa	986.94
450.01 K, 80184 kPa	1082.5
450.03 K, 99670 kPa	1162.7
450.04 K, 119488 kPa	1235.4
450.05 K, 1060 kPa	502.02
499.61 K, 9979 kPa	534.61
499.67 K, 20291 kPa	650.54
499.69 K, 40057 kPa	807.98
499.72 K, 4164 kPa	442.17
499.72 K, 60022 kPa	927.39
499.75 K, 5168 kPa	460.32
499.75 K, 80169 kPa	1026.5
499.76 K, 1001 kPa	371.6
499.78 K, 3058 kPa	420.07
499.8 K, 99589 kPa	1109
499.82 K, 1926 kPa	395
499.89 K, 119374 kPa	1183.6

C[Si](C)(C)O[Si](C)(C)O[Si](C)(C)C [octamethyltrisiloxane]
Conditions	speed of sound [m/s]
299.61 K, 10196 kPa	986.47
299.62 K, 101 kPa	911.32
299.63 K, 502 kPa	914.41
299.64 K, 984 kPa	918.29
299.64 K, 1480 kPa	922.14
299.65 K, 2012 kPa	926.38
299.66 K, 3441 kPa	937.36
299.68 K, 20155 kPa	1050.3
299.69 K, 5923 kPa	955.8
299.71 K, 30179 kPa	1107.3
349.58 K, 3704 kPa	781
349.59 K, 2066 kPa	764.64
349.59 K, 10127 kPa	839.26
349.6 K, 1556 kPa	759.34
349.61 K, 6067 kPa	803.25
349.61 K, 20075 kPa	915.62
349.64 K, 29800 kPa	980.01
349.65 K, 1075 kPa	754.2
349.69 K, 558 kPa	748.58
349.91 K, 111 kPa	742.97
399.42 K, 29701 kPa	873.39
399.95 K, 2018 kPa	610.77
399.96 K, 508 kPa	588.68
399.96 K, 993 kPa	595.83
399.96 K, 1439 kPa	602.33
399.96 K, 3510 kPa	630.8
400.02 K, 9928 kPa	704.99
400.15 K, 19875 kPa	796.17
449.44 K, 23518 kPa	734.5
449.96 K, 1045 kPa	448.89
449.98 K, 1523 kPa	458.69
449.99 K, 492 kPa	436.7
450.01 K, 1994 kPa	468.09
450.05 K, 3497 kPa	495.73
450.09 K, 6009 kPa	536.6
450.14 K, 9983 kPa	591.45
450.22 K, 20246 kPa	701.94
498.94 K, 3487 kPa	373.05
498.96 K, 1989 kPa	328.83
499 K, 5834 kPa	424.21
499.02 K, 1521 kPa	313.47
499.02 K, 10178 kPa	498.23
499.04 K, 1000 kPa	292.6
499.05 K, 16859 kPa	585.07
549.67 K, 15312 kPa	492.6
549.74 K, 6653 kPa	340.31
549.79 K, 4484 kPa	279.71
549.8 K, 10050 kPa	411.61
549.84 K, 12528 kPa	452.26
